From PMC8675232 (Frontiers in Pharmacology, 2021)

Legend:
[1] = in vivo; cited from earlier work
[2] = system: healthy Chinese male volunteers; experiment: Pharmacodynamics (glucose infusion rate) in 24-h euglycemic clamp; assay type: in vivo; settings: 0.4 IU/kg s.c. single dose, mean ± SD
Procedure: The volunteers were screened and qualified for the entry standard. […] During the trial, volunteers were requested to avoid strenuous exercises, smoking, drinking alcohol, or caffeinated drinks (e.g., tea and coffee). […] C-peptide reduction rate <30%; group B: […] The trial was carried out in accordance with the principles of the Declaration of Helsinki. This study was approved by the Ethics Committee of the First Affiliated Hospital of ChongQing Medical University (No. 20190101). All recruited volunteers underwent a single-dose euglycemic clamp test. Participants arrived at the ward on the day prior to the clamp test to ensure a 10-h fasting condition and to maintain fasting during euglycemic clamping. […] Intravenous access was obtained in one arm for a 20% glucose infusion and in the other for blood drawing. The arm for blood drawing was heated using a warming blanket to arterialize venous blood (55-65°C). […] Basal glucose (BG) was defined as the average blood glucose level before injection; the target glucose (TG) level was defined as the BG minus 0.28 mmol/[…] al., 2015b]); and we controlled the blood glucose concentration as close as possible to the TG level. The glucose infusion rate (GIR) was manually adjusted by investigators to maintain blood glucose at the target value. […] SPSS 22.0 and WinNonlin 8.1 were used for statistical analysis. […] The oscillation of glucose was calculated with formula 1-Gt (glucose at time t)/Gd (desired glucose). […] The pharmacodynamic parameters were area under the glucose infusion rate versus time curve (AUCGIR0-24 h), peak of glucose infusion rate (GIRmax), and time to […]).

[3] = group A (C-peptide reduction <30%, n = 13)
[4] = group B (C-peptide reduction ≥30% and <50%, n = 15)
[5] = group C (C-peptide reduction ≥50%, n = 11)

## C-peptide
[1]
  half-life: 20 to 30 min

## insulin glargine
[2]; [3]
  AUCGIR0–24 h: 3175.9 ± 1135.2 mg/kg
  GIRmax: 3.5 ± 1.3 mg/kg/min
  TGIRmax: 593.1 ± 198.1 min
[2]; [4]
  AUCGIR0–24 h: 2862.9 ± 1176.0 mg/kg
  GIRmax: 3.4 ± 1.4 mg/kg/min
  TGIRmax: 584.0 ± 199.1 min
[2]; [5]
  AUCGIR0–24 h: 2526.1 ± 1222.0 mg/kg
  GIRmax: 3.0 ± 1.5 mg/kg/min
  TGIRmax: 756.4 ± 228.0 min
